Source: ChEMBL document CHEMBL5252536, “Discovery of VU0467485/AZ13713945: An M4 PAM Evaluated as a Preclinical Candidate for the Treatment of Schizophrenia” (ACS Med Chem Lett, 2017)

Tests used:
[1] = target: T1, Muscarinic acetylcholine receptor M4 (Homo sapiens, UniProt P08173); experiment: Positive allosteric modulator activity at human M4 receptor expressed in CHO cells co-expressing Gqi5 in presence of EC20 concentration of acetylcholine by calcium mobilization assay; format: cell-based
T1 sequence (P08173 whole entry): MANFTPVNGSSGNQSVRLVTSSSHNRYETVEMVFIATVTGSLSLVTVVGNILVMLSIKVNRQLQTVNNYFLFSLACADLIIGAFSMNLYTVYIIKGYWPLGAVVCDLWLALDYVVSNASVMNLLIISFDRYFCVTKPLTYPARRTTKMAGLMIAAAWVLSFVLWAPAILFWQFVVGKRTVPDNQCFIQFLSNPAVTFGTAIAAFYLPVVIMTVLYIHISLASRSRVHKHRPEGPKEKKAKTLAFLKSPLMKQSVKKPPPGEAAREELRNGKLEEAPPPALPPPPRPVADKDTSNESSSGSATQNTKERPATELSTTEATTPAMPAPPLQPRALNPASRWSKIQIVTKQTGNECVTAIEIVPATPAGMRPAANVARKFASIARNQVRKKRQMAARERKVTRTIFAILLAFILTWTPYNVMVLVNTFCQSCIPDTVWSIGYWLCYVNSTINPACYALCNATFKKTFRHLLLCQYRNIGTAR

[2] = target: T2, Muscarinic acetylcholine receptor M4 (Homo sapiens) (UniProt P08173); experiment: Positive allosteric modulator activity at human M4 receptor expressed in CHO cells co-expressing Gqi5 assessed as maximal response to ACh by calcium mobilization assay relative to contol; format: cell-based; details: filed as positive allosteric modulator
T2 sequence (whole entry): T1 sequence (P08173 whole entry)

EC50 ([1]; read-out: EC50) | Activity [2] | EC50 ([1]; read-out: pEC50 (converted)) | pEC50 ([1]; cho) | SMILES
0.239 µM | 76.9% | – | – | COc1ccc(CNC(=O)c2sc3nnc(C)c(C)c3c2N)cn1
0.0434 µM | 71.2% | – | – | COc1ccc(CNC(=O)c2sc3nnc(C)c(C)c3c2N)c(F)c1F
0.0414 µM | 68.5% | – | – | COc1cc(F)c(CNC(=O)c2sc3nnc(C)c(C)c3c2N)cc1F
0.0967 µM | 69.8% | – | – | Cc1nnc2sc(C(=O)NCc3ccc(O)cc3)c(N)c2c1C
0.0906 µM | 75.5% | – | – | COc1ccc(CNC(=O)c2sc3nnc(C)c(C)c3c2N)c(F)c1
0.508 µM | 62.4% | – | – | COc1ccc([C@H](C)NC(=O)c2sc3nnc(C)c(C)c3c2N)cc1F
0.142 µM | 80.8% | – | – | COc1ncc(CNC(=O)c2sc3nnc(C)c(C)c3c2N)cc1F
0.13 µM | 83.7% | – | – | COc1ccc(CNC(=O)c2sc3nnc(C)c(C)c3c2N)cc1
0.0841 µM | 75.3% | – | – | COc1c(F)cc(CNC(=O)c2sc3nnc(C)c(C)c3c2N)cc1F
0.0591 µM | 83.1% | 0.0603 µM | – | Cc1nnc2sc(C(=O)NCc3ccc(O)c(F)c3)c(N)c2c1C
0.1 µM | 87.1% | – | – | COc1cc(F)c(CNC(=O)c2sc3nnc(C)c(C)c3c2N)c(F)c1
> 10 µM | – | – | < 5 | COc1ccc([C@@H](C)NC(=O)c2sc3nnc(C)c(C)c3c2N)cc1F
